Laboratory results taken from the NIST ThermoML archive (doi:10.1016/j.jct.2017.11.003).

Experiment: xn = mol fraction of the nth substance listed
Conditions: 100 kPa, Liquid; for speed of sound: Frequency=2 MHz, Linear variable-path acoustic interferometer; for mass density: Vibrating tube method

Cc1ccccc1Cl [2-chlorotoluene] + CCCCCCCCCO
Conditions | mass density, 293.15 K [kg/m3] | mass density, 298.15 K [kg/m3] | mass density, 303.15 K [kg/m3] | mass density, 308.15 K [kg/m3] | speed of sound, 293.15 K [m/s] | speed of sound, 298.15 K [m/s] | speed of sound, 303.15 K [m/s] | speed of sound, 308.15 K [m/s]
x1 = 0.0846 | 843 | 840 | 836 | 832 | 1375.9 | 1360.1 | 1348.7 | 1325.2
x1 = 0.1974 | 864 | 861 | 857 | 853 | 1367.7 | 1351.5 | 1339.2 | 1315.5
x1 = 0.2911 | 883 | 880 | 876 | 872 | 1359.7 | 1342.9 | 1329.6 | 1305.8
x1 = 0.3964 | 906 | 902 | 898 | 894 | 1349.9 | 1331.9 | 1318.6 | 1294
x1 = 0.4896 | 928 | 924 | 920 | 915 | 1341.3 | 1322.3 | 1308.2 | 1284
x1 = 0.5943 | 954 | 950 | 946 | 941 | 1331.5 | 1312.2 | 1298 | 1273.4
x1 = 0.6918 | 981 | 976 | 972 | 967 | 1324 | 1304.4 | 1290 | 1265.8
x1 = 0.7948 | 1011 | 1007 | 1002 | 997 | 1318 | 1298.5 | 1284 | 1260.8
x1 = 0.898 | 1045 | 1040 | 1036 | 1031 | 1315.2 | 1297 | 1280.7 | 1259.9
x1 = 1 | 1082 | 1077 | 1073 | 1068 | 1317 | 1299.7 | 1283.9 | 1265.8

Cc1cccc(Cl)c1 [3-chlorotoluene] + CCCCCCCCCO
Conditions | mass density, 293.15 K [kg/m3] | mass density, 298.15 K [kg/m3] | mass density, 303.15 K [kg/m3] | mass density, 308.15 K [kg/m3] | speed of sound, 293.15 K [m/s] | speed of sound, 298.15 K [m/s] | speed of sound, 303.15 K [m/s] | speed of sound, 308.15 K [m/s]
x1 = 0.0967 | 844 | 841 | 838 | 834 | 1374.3 | 1357.5 | 1345.4 | 1320.9
x1 = 0.1893 | 861 | 858 | 854 | 850 | 1366.3 | 1348.2 | 1335.6 | 1310.1
x1 = 0.2985 | 883 | 879 | 875 | 871 | 1355.3 | 1336.2 | 1323 | 1297.4
x1 = 0.3926 | 902 | 898 | 894 | 890 | 1345 | 1325.6 | 1310.9 | 1286
x1 = 0.4834 | 923 | 919 | 914 | 910 | 1335.2 | 1315.2 | 1300 | 1275.7
x1 = 0.5953 | 950 | 945 | 941 | 937 | 1323.7 | 1303.7 | 1288.3 | 1264.9
x1 = 0.6918 | 975 | 970 | 966 | 961 | 1315.7 | 1296 | 1280.3 | 1257.6
x1 = 0.7946 | 1004 | 1000 | 995 | 990 | 1310.2 | 1291.2 | 1274.7 | 1254
x1 = 0.8963 | 1036 | 1031 | 1027 | 1022 | 1308.7 | 1290.7 | 1273.6 | 1253.9
x1 = 1 | 1072 | 1067 | 1063 | 1058 | 1313.8 | 1296.5 | 1279.5 | 1261.2

Cc1ccc(Cl)cc1 [4-chlorotoluene] + CCCCCCCCCO
Conditions | mass density, 293.15 K [kg/m3] | mass density, 298.15 K [kg/m3] | mass density, 303.15 K [kg/m3] | mass density, 308.15 K [kg/m3] | speed of sound, 293.15 K [m/s] | speed of sound, 298.15 K [m/s] | speed of sound, 303.15 K [m/s] | speed of sound, 308.15 K [m/s]
x1 = 0.0835 | 842 | 839 | 835 | 832 | 1376.5 | 1358.3 | 1346.4 | 1322.8
x1 = 0.1905 | 862 | 858 | 855 | 851 | 1369.2 | 1347.9 | 1334.9 | 1311.7
x1 = 0.2888 | 881 | 877 | 873 | 869 | 1360.5 | 1337.3 | 1323.5 | 1300.5
x1 = 0.3983 | 904 | 900 | 896 | 891 | 1350 | 1324.8 | 1310.6 | 1287.6
x1 = 0.4948 | 925 | 921 | 917 | 912 | 1340.2 | 1313.6 | 1298.7 | 1276.4
x1 = 0.594 | 949 | 945 | 940 | 935 | 1330 | 1303 | 1287.9 | 1266
x1 = 0.6925 | 974 | 970 | 965 | 960 | 1321 | 1294.2 | 1278.5 | 1257.4
x1 = 0.7952 | 1003 | 999 | 994 | 988 | 1313 | 1287.5 | 1271.4 | 1250.9
x1 = 0.899 | 1035 | 1031 | 1025 | 1020 | 1308 | 1284.9 | 1267.7 | 1248.9
x1 = 1 | 1069 | 1065 | 1060 | 1054 | 1306.4 | 1288.2 | 1270 | 1252.1

CCCCCCCCCO [nonan-1-ol] + ClCCCl
Conditions | mass density, 293.15 K [kg/m3] | mass density, 298.15 K [kg/m3] | mass density, 303.15 K [kg/m3] | mass density, 308.15 K [kg/m3] | speed of sound, 293.15 K [m/s] | speed of sound, 298.15 K [m/s] | speed of sound, 303.15 K [m/s] | speed of sound, 308.15 K [m/s]
x2 = 0 | 828 | 824 | 821 | 818 | 1380.5 | 1364.7 | 1348.1 | 1330.5
x2 = 0.0922 | 845 | 841 | 838 | 834 | 1357.5 | 1341.4 | 1329.7 | 1305.2
x2 = 0.2067 | 869 | 866 | 862 | 858 | 1332.2 | 1315.5 | 1301.2 | 1277.5
x2 = 0.2984 | 892 | 888 | 884 | 880 | 1313.7 | 1296.8 | 1280.6 | 1257.8
x2 = 0.406 | 922 | 918 | 914 | 909 | 1293.1 | 1275.5 | 1258 | 1235
x2 = 0.4896 | 950 | 946 | 941 | 936 | 1277.3 | 1260.3 | 1242.2 | 1219
x2 = 0.6039 | 994 | 989 | 984 | 979 | 1258.2 | 1240.6 | 1221.4 | 1199
x2 = 0.6928 | 1035 | 1030 | 1025 | 1019 | 1243.5 | 1226.4 | 1206.5 | 1184.8
x2 = 0.8087 | 1101 | 1095 | 1089 | 1083 | 1227.5 | 1210.5 | 1190 | 1169
x2 = 0.9063 | 1170 | 1163 | 1157 | 1150 | 1216.7 | 1199 | 1179.2 | 1159.9
